Results on six molecules are retold here after patent publication EP1792902A1, “Processes for preparation of 5-(6-quinazolinyl)-furan-2-carbaldehydes” (priority 2000, dated 2002).

Data set [1] deals with breast (BT474). The experiment in a line: Methylene Blue Growth Inhibition Assay, BT474. Type of data set: cell-based. Conditions: Homo sapiens, BT-474, 72 h; 3 days incubation, methylene blue staining; read-out: BT474 IC50 uM Cell. The procedure: (§1) Human breast (BT474), head and neck (HN5) and gastric tumor (N87) cell lines and human foreskin Fibroblasts (HFF) were cultured in low glucose DMEM (Life Technologies 12320-032) containing 10% fetal bovine serum (FBS) at 37°C in a humidified 10% CO2, 90% air incubator. The SV40 transformed human mammary epithelial cell line HB4a was transfected with either human H-ras cDNA (HB4a r4.2) or the human c-erbB2 cDNA (HB4a c5.2). The HB4a clones were cultured in RPMI containing 10% FBS, insulin (5 µg/ml), hydrocortisone (5 µg/ml), supplemented with the selection agent hygromycin B (50µg/ml). Cells were harvested using trypsin/EDTA, counted using a haemocytometer, and plated in […] of the appropriate media, at the following densities, in a 96-well tissue culture plate (Falcon 3075): BT474 10,000 cells/well, HN5 3,000 cells/well, N87 10,000 cells/well, HB4a c5.2 3,000 cells/well, HB4a r4.2 3,000 cells/well, HFF 2500 cells/well. The next day, compounds were diluted in DMEM containing […] gentamicin, at twice the final required concentration, from 10mM stock solutions in DMSO. […]/well of these dilutions were added to the 100ml of media currently on the cell plates. Medium containing 0.6% DMSO was added to control wells. Compounds diluted in DMEM were added to all cell lines, including the HB4a r4.2 and HB4a c5.2 cell lines. The final concentration of DMSO in all wells was 0.3%. Cells were incubated at 37°C, 10% CO2 for 3 days. Medium was removed by aspiration. Cell biomass was estimated by staining cells with 100µl per well methylene blue (Sigma M9140, 0.5% in 50:50 ethanol:water), and incubation at room temperature for at least 30 minutes. Stain was removed, and the plates rinsed under a gentle stream of water, and air-dried. To release stain from the cells 100µl of solubilization solution was added (1% N-lauroyl sarcosine, Sodium salt, Sigma L5125, in PBS), and plates were shaken gently for about 30 minutes. Optical density at 620 nm was measured on a microplate reader. Percent inhibition of cell growth was calculated relative to vehicle treated control wells. […]

The subject of data set [2] is head and neck (HN5). The data set is described as follows: Methylene Blue Growth Inhibition Assay, HN5. Type of data set: cell-based. Conditions: Homo sapiens, 72 h; 3 days incubation, methylene blue staining; read-out: HN5 IC50 uM Cell. As for the experimental part:
as §1

Data set [3] relates to gastric tumor (N87) cell lines. The data set is described as follows: Methylene Blue Growth Inhibition Assay, N87. The format is cell-based. Conditions: Homo sapiens, 72 h; 3 days incubation, methylene blue staining. As for the experimental part: as §1
A short description of data set [4]: Slurry equilibration method, relative physical stability of anhydrate and monohydrate crystal forms. The conditions noted are these: for Equilibrium Form: 25°C, pXRD.
Data set [5] concerns the target EGFr isolated from solubilised A431 cell membranes (Homo sapiens, UniProt P00533). The experiment in a line: Substrate phosphorylation assay, EGFR tyrosine kinase inhibition. The format is biochemical. Conditions: tested in buffered solution. An excerpt:
(§2) The substrate phosphorylation assays use baculovirus expressed, recombinant constructs of the intracellular domains of c-erbB-2 and c-erbB-4 that are constitutively active and EGFr isolated from solubilised A431 cell membranes. The method measures the ability of the isolated enzymes to catalyse the transfer of the g-phosphate from ATP onto tyrosine residues in a biotinylated synthetic peptide (Biotin-[…]. Substrate phosphorylation was detected following either of the following two procedures: • a.) c-ErbB-2, c-ErbB4 or EGFr were incubated for 30 minutes, at room temperature, with 10mM MnCl2, […], and test compound (diluted from a 5mM stock in DMSO, final DMSO concentration is 2%) in 40mM HEPES buffer, pH 7.4. The reaction was stopped by the addition of EDTA (final concentration 0.15mM) and a sample was transferred to a streptavidin-coated 96-well plate. The plate was washed and the level of phosphotyrosine on the peptide was determined using a Europium-labelled antiphosphotyrosine antibody and quantified with a time-resolved fluorescence technique. • b.) ErbB2 was incubated for 50 minutes at room temperature with 15 mM MnCl2, 2 mM ATP, 0.25 mCi [g-^33P] […] The SPA signal was measured using a Packard Topcount 96-well plate scintillation counter (Packard Instrument Co., Meriden, CT).

The target of data set [6] is T1, c-erbB-2 (Homo sapiens, UniProt P04626).
T1 construct: recombinant constructs of the intracellular domains of c-erbB-2 and c-erbB-4 that are constitutively active; made in house
T1 sequence (P04626 676-1255 limits assumed): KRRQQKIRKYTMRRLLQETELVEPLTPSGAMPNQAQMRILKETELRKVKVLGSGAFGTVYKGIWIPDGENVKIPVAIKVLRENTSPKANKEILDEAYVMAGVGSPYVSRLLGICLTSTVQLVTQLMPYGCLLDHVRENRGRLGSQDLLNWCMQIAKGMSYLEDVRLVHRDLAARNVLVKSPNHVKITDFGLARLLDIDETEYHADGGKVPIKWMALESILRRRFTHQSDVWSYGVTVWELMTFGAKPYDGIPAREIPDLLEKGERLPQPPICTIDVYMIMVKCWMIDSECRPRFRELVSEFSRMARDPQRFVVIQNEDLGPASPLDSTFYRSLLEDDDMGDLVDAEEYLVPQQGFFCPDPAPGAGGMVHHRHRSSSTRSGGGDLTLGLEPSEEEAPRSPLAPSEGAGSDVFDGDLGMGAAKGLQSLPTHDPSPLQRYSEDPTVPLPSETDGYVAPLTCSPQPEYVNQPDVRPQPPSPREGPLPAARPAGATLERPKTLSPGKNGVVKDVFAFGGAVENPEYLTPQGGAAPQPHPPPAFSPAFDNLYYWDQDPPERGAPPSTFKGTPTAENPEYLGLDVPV
The data set is described as follows: Substrate phosphorylation assay, erbB2 tyrosine kinase inhibition. Type of data set: biochemical. Conditions: tested in buffered solution.
Text: as §2

The target in data set [7] is T2, c-erbB-4 (Homo sapiens, UniProt Q15303).
T2 construct: recombinant constructs of the intracellular domains of c-erbB-2 and c-erbB-4 that are constitutively active; made in house
T2 sequence (Q15303 676-1308 limits assumed): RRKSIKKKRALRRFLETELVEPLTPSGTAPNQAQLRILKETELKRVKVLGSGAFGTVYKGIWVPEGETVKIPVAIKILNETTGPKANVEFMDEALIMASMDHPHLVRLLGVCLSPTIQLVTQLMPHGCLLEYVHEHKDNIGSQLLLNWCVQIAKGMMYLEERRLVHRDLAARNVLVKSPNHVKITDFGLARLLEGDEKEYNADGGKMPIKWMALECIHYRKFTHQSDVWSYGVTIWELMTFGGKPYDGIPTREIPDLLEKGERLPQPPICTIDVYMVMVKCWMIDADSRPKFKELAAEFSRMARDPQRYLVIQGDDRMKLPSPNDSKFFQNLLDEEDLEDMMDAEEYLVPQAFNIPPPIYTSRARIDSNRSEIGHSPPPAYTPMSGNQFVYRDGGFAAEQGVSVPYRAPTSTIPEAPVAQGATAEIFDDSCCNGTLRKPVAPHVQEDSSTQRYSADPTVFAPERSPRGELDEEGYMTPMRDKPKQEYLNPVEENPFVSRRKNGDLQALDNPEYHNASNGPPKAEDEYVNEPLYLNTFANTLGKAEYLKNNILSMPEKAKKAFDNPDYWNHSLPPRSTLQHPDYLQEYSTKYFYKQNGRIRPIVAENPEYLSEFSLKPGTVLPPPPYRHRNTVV
The experiment in a line: Substrate phosphorylation assay, erbB4 tyrosine kinase inhibition. The format is biochemical. Conditions: tested in buffered solution.
Text: as §2

Data set [8] is described as follows: Moisture sorption testing. The format is physicochemical. Conditions: at the humidities to which it might be exposed (e.g., 20-75% relative humidity (RH)). The procedure: Approximately 12 mg of N-{3-Chloro-4-[(3-fluorobenzyl) oxy]phenyl}-6-[5-({[2-(methanesulphonyl)ethyl] amino}methyl)-2-furyl]-4-quinazolinamine ditosylate monohydrate salt prepared according to Example 10 was weighed into a sample pan of a moisture sorption apparatus (model number SGA-100, made by VTI). The sample was dried at 60°C under a nitrogen stream until the weight loss was less than 0.015% in 5 minutes. The relative humidity (RH) was then increased (adsorption) to 5, 15, 25, 35, 45, 55, 65, 75, 85 and 95% - at each step, equilibrium was defined as a weight change of less than 0.015% in 5 minutes. The relative humidity was then decreased (desorption) to 90, 80, 70, 60, 50, 40, 30, and 20% with the same equilibrium condition. The sorption curve (y-axis: Weight - % change vs. x-axis: % RH) is depicted in Figure 3(a).
Approximately 15 mg of N-{3-Chloro-4-[(3-fluorobenzyl) oxy]phenyl}-6-[5-({[2-(methanesulphonyl)ethyl]amino}methyl)-2-furyl]-4-quinazolinamine di-HCl salt was weighed into a sample pan of a moisture sorption apparatus (model number SGA-100 , made by VTI). The sample was dried at 60°C under a nitrogen stream until the weight loss was less than 0.015% in 5 minutes. The relative humidity was then increased (adsorption) to 5, 15, 25, 35, 45, 55, 65, 75, 85 and 95% - at each step, equilibrium was defined as a weight change of less than 0.015% in 5 minutes. […]

Sequence of EGFr isolated from solubilised A431 cell membranes (P00533 25-1210): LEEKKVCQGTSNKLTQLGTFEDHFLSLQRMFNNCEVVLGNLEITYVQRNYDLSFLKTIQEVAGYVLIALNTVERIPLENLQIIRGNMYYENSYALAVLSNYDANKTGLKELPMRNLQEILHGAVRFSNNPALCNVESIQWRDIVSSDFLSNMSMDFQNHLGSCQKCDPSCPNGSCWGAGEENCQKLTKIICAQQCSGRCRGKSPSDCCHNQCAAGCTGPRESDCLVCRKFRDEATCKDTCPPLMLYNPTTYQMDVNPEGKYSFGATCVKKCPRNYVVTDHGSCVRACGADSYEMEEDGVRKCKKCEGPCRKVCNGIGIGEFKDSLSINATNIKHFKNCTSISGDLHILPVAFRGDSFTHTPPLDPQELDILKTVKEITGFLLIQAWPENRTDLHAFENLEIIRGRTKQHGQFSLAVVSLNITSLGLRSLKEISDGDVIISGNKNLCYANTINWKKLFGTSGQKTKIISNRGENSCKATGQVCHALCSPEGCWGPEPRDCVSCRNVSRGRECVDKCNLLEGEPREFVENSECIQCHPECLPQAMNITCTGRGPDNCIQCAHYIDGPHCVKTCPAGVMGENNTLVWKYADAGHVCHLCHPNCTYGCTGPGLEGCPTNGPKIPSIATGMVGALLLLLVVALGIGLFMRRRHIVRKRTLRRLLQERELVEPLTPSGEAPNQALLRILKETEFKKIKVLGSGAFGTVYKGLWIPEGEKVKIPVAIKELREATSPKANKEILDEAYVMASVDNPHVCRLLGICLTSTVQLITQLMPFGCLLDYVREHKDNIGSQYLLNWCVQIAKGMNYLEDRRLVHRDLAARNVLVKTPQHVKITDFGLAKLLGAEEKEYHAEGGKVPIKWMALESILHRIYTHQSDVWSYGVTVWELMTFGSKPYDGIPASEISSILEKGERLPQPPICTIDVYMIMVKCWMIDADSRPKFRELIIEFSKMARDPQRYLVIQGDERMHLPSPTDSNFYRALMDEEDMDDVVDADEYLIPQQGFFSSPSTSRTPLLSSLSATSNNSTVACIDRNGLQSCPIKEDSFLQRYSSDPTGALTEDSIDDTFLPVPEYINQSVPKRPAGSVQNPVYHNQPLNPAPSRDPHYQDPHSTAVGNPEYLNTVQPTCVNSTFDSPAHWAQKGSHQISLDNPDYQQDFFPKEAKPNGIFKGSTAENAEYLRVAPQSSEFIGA

Turning to `CS(=O)(=O)CCNCc1ccc(-c2ccc3ncnc(Nc4ccc(OCc5cccc(F)c5)c(Cl)c4)c3c2)o1` [Example 8, N-{3-Chloro-4-[(3-fluorobenzyl)oxy]phenyl}-6-[5({[2-(methanesulphonyl)ethyl]amino}methyl)-2-furyl]-4-quinazolinamine ditosylate anhydrate], the concentration for half-maximal inhibition (IC50) in data set [1], in data set [2] and in data set [3] was < 5 µM in each case.
Consider `CS(=O)(=O)CCNCc1ccc(-c2ccc3ncnc(Nc4ccc(OCc5cccc(F)c5)c(Cl)c4)c3c2)o1` [Example 10, N-{3-Chloro-4-[(3-f/uorobenzyl)oxy]phenyl}-6-[5-({[2-(methanesulphonyl)ethyl]amino}methyl)-2-furyl]-4-quinazolinamine ditosylate monohydrate], for which the “RH at which the monohydrate becomes the thermodynamically stable form” value in data set [4] (remains stable up through 100% RH, slurry equilibration at 25°C) is given as 7 - 15 % RH.
With `CS(=O)(=O)CCNCc1ccc(-c2ccc3ncnc(Nc4ccc(OCc5cccc(F)c5)c(Br)c4)c3c2)o1` [Example 12, (4-(3-Fluoro-benzyloxy)-3-bromophenyl)-(6-(5-((2-methanesulphonyl-ethylamino)-methyl)-furan-2 yl)quinazolin-4 yl)-amine ditosylate], the IC50 in data set [5] is < 0.1 µM; in data set [1], < 5 µM; in data set [6], < 0.1 µM; in data set [7] it was 1 to 10 µM; in data set [2], < 5 µM; in data set [3] it was < 5 µM.
In the case of `CS(=O)(=O)CCNCc1nc(-c2ccc3ncnc(Nc4ccc(OCc5cccc(F)c5)c(Cl)c4)c3c2)cs1` [Example 13, (4-(3-Fluoro-benzyloxy)-3-chlorophenyl)-(6-(2-((2-methanesulphonyl-ethylamino)-methyl)-thiazol-4-yl)quinazolin-4-yl)-amine ditosylate], the IC50 in data set [5] is < 0.1 µM; in data set [1], < 5 µM; in data set [6], < 0.1 µM; in data set [7] it was 0.1 to 1 µM; in data set [2] it was < 5 µM; in data set [3], < 5 µM.
On to `CS(=O)(=O)CCNCc1ccc(-c2ccc3ncnc(Nc4ccc(OCc5cccc(F)c5)c(Cl)c4)c3c2)o1.Cc1ccc(S(=O)(=O)O)cc1.Cc1ccc(S(=O)(=O)O)cc1` [N-{3-Chloro-4-[(3-fluorobenzyl)oxy]phenyl}-6-[5-({[2-(methanesulphonyl)ethyl]amino}methyl)-2-furyl]-4-quinazolinamine ditosylate], for which the “Equilibrium Form” value in data set [4] (RH 0 %, Water Volume 0 %, Water Mole Fraction 0.00, 1:1 anhydrate/monohydrate slurry in MeOH/H2O) is recorded as “Anhydrate”; in data set [4] (RH 7 %, Water Volume 2 %, Water Mole Fraction 0.04, 1:1 anhydrate/monohydrate slurry in MeOH/H2O), “Anhydrate”; in data set [4] (RH 15 %, Water Volume 5 %, Water Mole Fraction 0.11, 1:1 anhydrate/monohydrate slurry in MeOH/H2O), “Monohydrate”; in data set [4] (RH 26 %, Water Volume 10 %, Water Mole Fraction 0.20, 1:1 anhydrate/monohydrate slurry in MeOH/H2O), “Monohydrate”; in data set [4] (RH 43 %, Water Volume 20 %, Water Mole Fraction 0.36, 1:1 anhydrate/monohydrate slurry in MeOH/H2O) it was “Monohydrate”; in data set [4] (RH 66 %, Water Volume 40 %, Water Mole Fraction 0.60, 1:1 anhydrate/monohydrate slurry in MeOH/H2O), “Monohydrate”. For the same molecule, the “Equilibrium Form” value in data set [4] (RH 80 %, Water Volume 60 %, Water Mole Fraction 0.77, 1:1 anhydrate/monohydrate slurry in MeOH/H2O) is reported as “Monohydrate”; in data set [4] (RH 91 %, Water Volume 80 %, Water Mole Fraction 0.90, 1:1 anhydrate/monohydrate slurry in MeOH/H2O), “Monohydrate”; in data set [4] (RH 95 %, Water Volume 90 %, Water Mole Fraction 0.95, 1:1 anhydrate/monohydrate slurry in MeOH/H2O), “Monohydrate”; in data set [4] (RH 100 %, Water Volume 100 %, Water Mole Fraction 1.00, 1:1 anhydrate/monohydrate slurry), “Monohydrate”.
As for `CS(=O)(=O)CCNCc1ccc(-c2ccc3ncnc(Nc4ccc(OCc5cccc(F)c5)c(Cl)c4)c3c2)o1.Cl.Cl` [di-HCl salt, N-{3-Chloro-4-[(3-fluorobenzyl)oxy]phenyl}-6-[5-({[2-(methanesulphonyl)ethyl]amino}methyl)-2-furyl]-4-quinazolinamine di-HCl salt], the water sorption entry in data set [8] is “sorbs very large amounts of water”.
